Results from patent US6559142B2, “Sulfonamide matrix metalloproteinase inhibitors” (Warner-Lambert Company, priority 2001, dated 2003).

Columns and labels:
Format in all cases: biochemical
[1] = target: T1, MMP-7FL (full-length matrilysin) (Homo sapiens, UniProt P09237); experiment: Thiopeptolide hydrolysis inhibition assay, MMP-7FL; details: thiopeptolide substrate, HEPES pH 7.0, 22° C.
T1 sequence (P09237 95-267): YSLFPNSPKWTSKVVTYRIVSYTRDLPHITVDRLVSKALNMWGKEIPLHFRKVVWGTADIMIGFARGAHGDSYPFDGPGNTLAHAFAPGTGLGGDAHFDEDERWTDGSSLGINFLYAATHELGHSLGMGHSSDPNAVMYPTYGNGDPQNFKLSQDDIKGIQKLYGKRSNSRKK
Excerpt: (§1) The assays measure the amount by which a test compound reduces the hydrolysis of a thiopeptolide substrate catalyzed by a matrix metalloproteinase enzyme. Such assays are described in detail by Ye et al., Biochemistry, 1992;31(45):11231-11235, hereby incorporated herein by reference.
(§2) Thiopeptolide substrates show virtually no decomposition or hydrolysis at or below neutral pH in the absence of a matrix metalloproteinase enzyme. A typical thiopeptolide substrate commonly utilized for assays is Ac-Pro-Leu-Gly-thioester-Leu-Leu-Gly-OEt. A 100 μL assay mixture will contain 50 mM of N-2-hydroxyethylpiperazine-N′-2-ethanesulfonic acid buffer (“HEPES”) at pH 7.0, 10 mM CaCl2, 100 μM thiopeptolide substrate, and 1 mM 5,5′-dithio-bis-(2-nitrobenzoic acid) (DTNB). The thiopeptolide substrate concentration may be varied from, for example, 10 to 800 μM, in order to obtain Km and Kcat values. The change in absorbance at 405 nm is monitored on a Thermo Max microplate reader (Molecular Devices, Menlo Park, Calif.) at room temperature (22° C.). The calculation of the amount of hydrolysis of the thiopeptolide substrate is based on E412=13600 M^−1 cm^−1 for the DTNB-derived product 3-carboxy-4-nitrothiophenoxide. Assays are carried out with and without matrix metalloproteinase inhibitor compounds, and the amount of hydrolysis is compared for a determination of inhibitory activity of the test compounds.
(§3) Several representative compounds have been evaluated for their ability to inhibit various matrix metalloproteinase enzymes. In Table 1, MMP-1FL refers to full-length interstitial collagenase; MMP-2FL refers to full-length Gelatinase A; MMP-3CD refers to the catalytic domain of stromelysin-1; MMP-7FL refers to full-length matrilysin; MMP-9FL refers to full-length Gelatinase B; MMP-13CD refers to the catalytic domain of collagenase 3; and MMP-14CD refers to the catalytic domain of MMP-14. Test compounds were evaluated at various concentrations, in order to determine their respective IC50 values, the micromolar concentration of compound required to cause a 50% inhibition of the catalytic activity of the respective enzyme.

[2] = target: T2, MMP-1FL (full-length interstitial collagenase) (Homo sapiens, UniProt P03956); experiment: Thiopeptolide hydrolysis inhibition assay, MMP-1FL; details: thiopeptolide substrate, HEPES pH 7.0, 22° C.
T2 sequence (P03956 100-469): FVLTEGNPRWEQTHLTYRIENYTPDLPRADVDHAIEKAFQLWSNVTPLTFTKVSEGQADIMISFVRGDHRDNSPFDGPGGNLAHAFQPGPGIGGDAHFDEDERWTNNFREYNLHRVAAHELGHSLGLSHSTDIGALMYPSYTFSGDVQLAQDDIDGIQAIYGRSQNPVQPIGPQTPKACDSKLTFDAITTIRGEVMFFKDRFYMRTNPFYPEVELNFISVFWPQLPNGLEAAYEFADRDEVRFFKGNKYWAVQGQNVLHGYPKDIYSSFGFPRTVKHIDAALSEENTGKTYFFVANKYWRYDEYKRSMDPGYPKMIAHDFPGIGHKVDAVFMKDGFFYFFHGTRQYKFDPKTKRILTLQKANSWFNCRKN
Excerpt: as §1, §2, §3

[3] = target: T3, MMP-2FL (full-length Gelatinase A) (Homo sapiens, UniProt P08253); experiment: Thiopeptolide hydrolysis inhibition assay, MMP-2FL; details: thiopeptolide substrate, HEPES pH 7.0, 22° C.
T3 sequence (P08253 110-660): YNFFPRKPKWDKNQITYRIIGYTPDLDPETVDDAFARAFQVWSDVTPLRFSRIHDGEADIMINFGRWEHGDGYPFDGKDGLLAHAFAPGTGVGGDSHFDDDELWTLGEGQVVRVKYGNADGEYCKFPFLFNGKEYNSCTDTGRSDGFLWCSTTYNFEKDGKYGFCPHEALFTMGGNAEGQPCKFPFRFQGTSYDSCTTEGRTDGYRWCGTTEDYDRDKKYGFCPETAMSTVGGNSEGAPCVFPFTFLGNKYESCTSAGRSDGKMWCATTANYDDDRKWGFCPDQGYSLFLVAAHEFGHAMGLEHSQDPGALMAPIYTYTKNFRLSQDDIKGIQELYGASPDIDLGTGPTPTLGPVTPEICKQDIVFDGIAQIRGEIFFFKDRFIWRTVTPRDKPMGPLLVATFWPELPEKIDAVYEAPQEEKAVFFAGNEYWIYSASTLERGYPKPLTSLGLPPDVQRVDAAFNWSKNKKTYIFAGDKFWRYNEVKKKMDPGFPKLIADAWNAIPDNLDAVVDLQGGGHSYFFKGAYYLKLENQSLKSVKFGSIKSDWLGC
Excerpt: as §1, §2, §3

[4] = target: MMP-9FL (full-length Gelatinase B) (Homo sapiens, UniProt P14780); experiment: Thiopeptolide hydrolysis inhibition assay, MMP-9FL; details: thiopeptolide substrate, HEPES pH 7.0, 22° C.
Excerpt: as §1, §2, §3

[5] = target: MMP-14CD (catalytic domain of MMP-14) (Homo sapiens, UniProt P50281); experiment: Thiopeptolide hydrolysis inhibition assay, MMP-14CD; details: thiopeptolide substrate, HEPES pH 7.0, 22° C.
Excerpt: as §1, §2, §3

[6] = target: MMP-3CD (catalytic domain of stromelysin-1) (Homo sapiens, UniProt P08254); experiment: Thiopeptolide hydrolysis inhibition assay, MMP-3CD; details: thiopeptolide substrate, MES buffer pH 6.0
Excerpt: as §1, §2
It should be appreciated that the assay buffer used with MMP-3CD is 50 mM of N-morpholinoethanesulfonate (“MES”) at pH 6.0 rather than the HEPES buffer at pH 7.0 described above.
as §3

[7] = target: MMP-13CD (catalytic domain of collagenase 3) (Homo sapiens, UniProt P45452); experiment: Thiopeptolide hydrolysis inhibition assay, MMP-13CD; details: thiopeptolide substrate, HEPES pH 7.0, 22° C.
Excerpt: as §1, §2, §3

MMP-9FL (full-length Gelatinase B), sequence (P14780 94-707, species assumed): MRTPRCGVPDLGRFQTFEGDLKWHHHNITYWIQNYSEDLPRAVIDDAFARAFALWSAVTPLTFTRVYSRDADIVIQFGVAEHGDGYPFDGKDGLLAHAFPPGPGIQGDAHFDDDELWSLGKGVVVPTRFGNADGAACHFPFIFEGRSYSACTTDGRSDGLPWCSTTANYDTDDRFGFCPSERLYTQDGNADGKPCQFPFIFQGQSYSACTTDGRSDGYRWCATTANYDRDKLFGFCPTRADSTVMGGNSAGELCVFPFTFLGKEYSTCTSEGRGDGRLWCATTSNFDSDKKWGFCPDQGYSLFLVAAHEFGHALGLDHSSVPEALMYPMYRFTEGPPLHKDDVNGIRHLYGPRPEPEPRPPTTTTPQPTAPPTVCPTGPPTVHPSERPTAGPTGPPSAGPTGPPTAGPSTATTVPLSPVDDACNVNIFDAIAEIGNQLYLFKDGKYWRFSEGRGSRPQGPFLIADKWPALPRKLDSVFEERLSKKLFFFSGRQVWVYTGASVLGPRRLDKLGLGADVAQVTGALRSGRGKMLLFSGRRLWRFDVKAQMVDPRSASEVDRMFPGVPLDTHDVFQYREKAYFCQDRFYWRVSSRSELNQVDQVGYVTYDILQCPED
MMP-3CD (catalytic domain of stromelysin-1), sequence (P08254 100-272 limits assumed): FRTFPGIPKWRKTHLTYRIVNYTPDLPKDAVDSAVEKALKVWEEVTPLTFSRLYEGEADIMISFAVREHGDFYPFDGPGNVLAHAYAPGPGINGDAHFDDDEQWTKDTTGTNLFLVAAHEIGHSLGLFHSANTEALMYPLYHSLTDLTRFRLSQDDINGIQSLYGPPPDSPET

| Compound | IC50 [1] | IC50 [2] | IC50 [3] | IC50 [4] | IC50 [5] | IC50 [6] | IC50 [7] |
| --- | --- | --- | --- | --- | --- | --- | --- |
| CC1(C)SCCN(S(=O)(=O)c2ccc3oc4cc([N+](=O)[O-])ccc4c3c2)[C@H]1C(=O)NO [Example 14, (S)-2,2-Dimethyl-4-(7-nitro-dibenzofuran-2-sulfonyl)-thiomorpholine-3-carboxylic Acid Hydroxyamide] | 0.038 µM | 0.012 µM | 0.022 µM | 0.19 µM | 0.024 µM | 0.005 µM | 0.002 µM |
| CC1(C)SCCN(S(=O)(=O)c2ccc3oc4ccccc4c3c2)[C@H]1C(=O)NO [Example 8, (S)-4-(Dibenzofuran-2-sulfonyl)-2,2-dimethyl-thiomorpholine-3-carboxylic Acid Hydroxyamide] | 0.028 µM | 0.017 µM | 0.015 µM | 0.26 µM | 0.04 µM | 0.009 µM | 0.003 µM |
| CC1(C)SCCN(S(=O)(=O)c2ccc3c(c2)oc2ccccc23)[C@H]1C(=O)O [Example 1, (S)-4-(Dibenzofuran-3-sulfonyl)-2,2-dimethyl-thiomorpholine-3-carboxylic Acid] | 55 µM | 1.42 µM | 0.074 µM | 22.5 µM | 0.064 µM | 0.041 µM | 0.97 µM |
| COC(=O)c1ccc2c(c1)oc1ccc(S(=O)(=O)N3CCSC(C)(C)[C@@H]3C(=O)O)cc12 [Example 11, (S)-4-(7-Methoxycarbonyl-dibenzofuran-2-sulfonyl)-2,2-dimethyl-thiomorpholine-3-carboxylic Acid] | 3.5 µM | 100 µM | 5.2 µM | 69 µM | 20 µM | 0.094 µM | 4.6 µM |
| CC1(C)SCCN(S(=O)(=O)c2ccc3oc4ccccc4c3c2)[C@H]1C(=O)O [Example 7, (S)-4-(Dibenzofuran-2-sulfonyl)-2,2-dimethyl-thiomorpholine-3-carboxylic Acid] | 16 µM | 59 µM | 3.9 µM | 100 µM | 4 µM | 0.21 µM | 11 µM |
| CC1(C)SCCN(S(=O)(=O)c2ccc3oc4cc(Br)ccc4c3c2)[C@H]1C(=O)NO [Example 10, (S)-4-(7-Bromo-dibenzofuran-2-sulfonyl)-2,2-dimethyl-thiomorpholine-3-carboxylic Acid Hydroxyamide] | 0.031 µM | 0.042 µM | 0.007 µM | 0.066 µM | 0.012 µM | 0.004 µM | 0.002 µM |
| CC1(C)SCN(S(=O)(=O)c2ccc3c(c2)oc2ccccc23)[C@@H]1C(=O)O [Example 3, R-3-(Dibenzofuran-3-sulfonyl)-5,5-dimethyl-thiazolidine-4-carboxylic Acid] | 100 µM | 100 µM | 9.5 µM | 150 µM | 10 µM | 2.5 µM | 23 µM |

Continued by falling IC50 [1], values first:

| IC50 [1] | IC50 [2] | IC50 [3] | IC50 [4] | IC50 [5] | IC50 [6] | IC50 [7] | Compound |
| --- | --- | --- | --- | --- | --- | --- | --- |
| 100 µM | 23 µM | 0.5 µM | 100 µM | 0.84 µM | 0.13 µM | 5.1 µM | CC1(C)SCCN(S(=O)(=O)c2ccc3c(c2)Cc2ccccc2-3)[C@H]1C(=O)O [Example 5, (S)-4-(9H-Fluorene-2-sulfonyl)-2,2-dimethyl-thiomorpholine-3-carboxylic Acid] |
| 59 µM | 6.9 µM | 3.9 µM | 18 µM | 11 µM | 3.2 µM | 1.4 µM | CC1(C)SCN(S(=O)(=O)c2ccc3c(c2)oc2ccccc23)[C@@H]1C(=O)NO [Example 4, R-3-(Dibenzofuran-3-sulfonyl)-5,5-dimethyl-thiazolidine-4-carboxylic Acid Hydroxyamide] |
| 1.6 µM | 60 µM | 33 µM | 100 µM | 15 µM | 1 µM | 2.7 µM | CC1(C)SCCN(S(=O)(=O)c2ccc3oc4cc([N+](=O)[O-])ccc4c3c2)[C@H]1C(=O)O [Example 13, (S)-2,2-Dimethyl-4-(7-nitro-dibenzofuran-2-sulfonyl)-thiomorpholine-3-carboxylic Acid] |
| 1.2 µM | 70 µM | 4 µM | 65 µM | 3.8 µM | 0.02 µM | 0.92 µM | CC1(C)SCCN(S(=O)(=O)c2ccc3oc4cc(Br)ccc4c3c2)[C@H]1C(=O)O [Example 9, (S)-4-(7-Bromo-dibenzofuran-2-sulfonyl)-2,2-dimethyl-thiomorpholine-3-carboxylic Acid] |
| 0.88 µM | 0.14 µM | 0.024 µM | 0.55 µM | 0.063 µM | 0.008 µM | 0.004 µM | CC1(C)SCCN(S(=O)(=O)c2ccc3c(c2)Cc2ccccc2-3)[C@H]1C(=O)NO [Example 6, (S)-4-(9H-Fluorene-2-sulfonyl)-2,2-dimethyl-thiomorpholine-3-carboxylic Acid Hydroxyamide] |
| 0.2 µM | 0.013 µM | 0.015 µM | 0.21 µM | 0.026 µM | 0.011 µM | 0.004 µM | CC1(C)SCCN(S(=O)(=O)c2ccc3c(c2)oc2ccccc23)[C@H]1C(=O)NO [Example 2, (S)-4-(Dibenzofuran-3-sulfonyl)-2,2-dimethyl-thiomorpholine-3-carboxylic Acid Hydroxyamide] |
| 0.032 µM | 0.033 µM | 0.25 µM | 1.8 µM | 0.098 µM | 0.008 µM | 0.013 µM | CC1(C)[C@H](C(=O)NO)N(S(=O)(=O)c2ccc3oc4ccccc4c3c2)CCS1(=O)=O [Example 15, (S)-4-(Dibenzofuran-2-sulfonyl)-2,2-dimethyl-1,1-dioxo-thiomorpholine-3-carboxylic Acid Hydroxyamide] |
| 0.029 µM | 0.15 µM | 0.017 µM | 0.047 µM | 0.095 µM | 0.006 µM | 0.005 µM | COC(=O)c1ccc2c(c1)oc1ccc(S(=O)(=O)N3CCSC(C)(C)[C@@H]3C(=O)NO)cc12 [Example 12, (S)-4-(7-Methoxycarbonyl-dibenzofuran-2-sulfonyl)-2,2-dimethyl-thiomorpholine-3-carboxylic Acid Hydroxyamide] |
